Assay results published in ChEMBL document CHEMBL2157907, “Optimization of anti-Trypanosoma cruzi oxadiazoles leads to identification of compounds with efficacy in infected mice” (Bioorg Med Chem, 2012).
Active and inactive are the calls of the source. No cut-off for these calls is given here.

Columns and labels:
[1] = system: Trypanosoma cruzi; assay: Induction of kinetoplast enlargement in trypomastigotes of Trypanosoma cruzi Y at 9.5 uM after 24 hrs by […] electron microscopic analysis; format: functional, organism-based
[2] = system: Trypanosoma cruzi; assay: Induction of endoplasmic reticulum degeneration in trypomastigotes of Trypanosoma cruzi Y at 9.5 uM after 24 hrs by […] electron microscopic analysis; format: functional, organism-based
[3] = system: Trypanosoma cruzi; assay: Induction of golgi apparatus degeneration in trypomastigotes of Trypanosoma cruzi Y at 9.5 uM after 24 hrs by […] electron microscopic analysis; format: functional, organism-based
[4] = system: Trypanosoma cruzi; assay: Induction of mitochondria degeneration in trypomastigotes of Trypanosoma cruzi Y at 9.5 uM after 24 hrs by […] electron microscopic analysis; format: functional, organism-based
[5] = system: Trypanosoma cruzi; assay: Induction of ultrastructural changes in trypomastigotes of Trypanosoma cruzi Y assessed as plasma membrane protrusions at 30 uM after 24 hrs by scanning electron microscopic analysis; format: functional
[6] = system: Trypanosoma cruzi; assay: Antitrypanosomal activity against trypomastigotes of Trypanosoma cruzi Y in BALB/c mouse peritoneal exudate macrophages assessed as reduction of parasite infection to cells at 10 ug/ml treated simultaneously with parasite measured after 2 hrs; format: functional, organism-based
[7] = Cytotoxicity against BALB/c mouse splenocytes after 24 hrs by [3H]-thymidine incorporation assay; format: cell-based, Splenocyte; details: read-out: LC50
[8] = system: Trypanosoma cruzi; assay: Antitrypanosomal activity against trypomastigotes of Trypanosoma cruzi Y infected in BALB/c mouse peritoneal exudate macrophages assessed as reduction of parasite level at 10 ug/ml after 4 days; format: functional, organism-based
[9] = system: Trypanosoma cruzi; assay: Antitrypanosomal activity against epimastigotes of Trypanosoma cruzi Y after 5 days; format: functional, organism-based; details: 120 h
[10] = system: Trypanosoma cruzi; assay: Antitrypanosomal activity against trypomastigotes of Trypanosoma cruzi Y infected in rhesus monkey LLC-MK2 cells assessed parasite viability after 24 hrs; format: functional, organism-based; details: LLC-MK2, 24 h
[11] = molecular target: Cruzipain (Trypanosoma cruzi) (UniProt P25779); assay: Inhibition of Trypanosoma cruzi cruzain using Z-Phe-Arg-aminomethylcoumarin as substrate at 100 uM after 10 mins
[12] = system: Trypanosoma cruzi; assay: Antitrypanosomal activity against trypomastigotes of Trypanosoma cruzi Y infected in BALB/c mouse assessed as reduction of parasite level in blood at 50 mg/kg, po administered after 5 days of postinfection qd for 5 days; format: functional, organism-based; design: dose 50 mg/kg
[13] = molecular target: Cruzipain (Trypanosoma cruzi, UniProt P25779); assay: Inhibition of Trypanosoma cruzi cruzain using Z-Phe-Arg-aminomethylcoumarin as substrate after 10 mins
[14] = system: Mus musculus; assay: Toxicity in BALB/c mouse assessed as serum total proteins level at 25 mg/kg, po after 24 hrs; format: organism-based; design: dose 25 mg/kg, route oral; details: in vivo
[15] = system: Mus musculus; assay: Toxicity in BALB/c mouse assessed as serum ALB level at 25 mg/kg, po after 24 hrs; format: organism-based; design: dose 25 mg/kg, route oral; details: in vivo
[16] = system: Mus musculus; assay: Toxicity in BALB/c mouse assessed as serum uric acid level at 25 mg/kg, po after 24 hrs; format: organism-based; design: dose 25 mg/kg, route oral; details: in vivo
[17] = system: Mus musculus; assay: Toxicity in BALB/c mouse assessed as serum Ca2+ level at 25 mg/kg, po after 24 hrs; format: organism-based; design: dose 25 mg/kg, route oral; details: in vivo
[18] = system: Mus musculus; assay: Toxicity in BALB/c mouse assessed as serum cholesterol level at 25 mg/kg, po after 24 hrs; format: organism-based; design: dose 25 mg/kg, route oral; details: in vivo
[19] = system: Mus musculus; assay: Toxicity in BALB/c mouse assessed as serum AML level at 25 mg/kg, po after 24 hrs; format: organism-based; design: dose 25 mg/kg, route oral; details: in vivo
[20] = system: Mus musculus; assay: Toxicity in BALB/c mouse assessed as serum BUN level at 25 mg/kg, po after 24 hrs; format: organism-based; design: dose 25 mg/kg, route oral; details: in vivo
[21] = system: Mus musculus; assay: Toxicity in BALB/c mouse assessed as serum GGT level at 25 mg/kg, po after 24 hrs; format: organism-based; design: dose 25 mg/kg, route oral; details: in vivo
[22] = system: Mus musculus; assay: Toxicity in BALB/c mouse assessed as serum ALT level at 25 mg/kg, po after 24 hrs; format: organism-based; design: dose 25 mg/kg, route oral; details: in vivo
[23] = system: Mus musculus; assay: Toxicity in BALB/c mouse assessed as serum alkaline phosphatase level at 25 mg/kg, po after 24 hrs; format: organism-based; design: dose 25 mg/kg, route oral; details: in vivo
[24] = system: Mus musculus; assay: Toxicity in BALB/c mouse assessed as serum ALB level at 50 mg/kg, po after 24 hrs; format: organism-based; design: dose 50 mg/kg, route oral; details: in vivo
[25] = system: Mus musculus; assay: Toxicity in BALB/c mouse assessed as serum globulin level at 50 mg/kg, po after 24 hrs; format: organism-based; design: dose 50 mg/kg, route oral; details: in vivo
[26] = system: Mus musculus; assay: Toxicity in BALB/c mouse assessed as serum uric acid level at 50 mg/kg, po after 24 hrs; format: organism-based; design: dose 50 mg/kg, route oral; details: in vivo
[27] = system: Mus musculus; assay: Toxicity in BALB/c mouse assessed as serum total proteins level at 50 mg/kg, po after 24 hrs; format: organism-based; design: dose 50 mg/kg, route oral; details: in vivo
[28] = system: Mus musculus; assay: Toxicity in BALB/c mouse assessed as serum Ca2+ level at 50 mg/kg, po after 24 hrs; format: organism-based; design: dose 50 mg/kg, route oral; details: in vivo
[29] = system: Mus musculus; assay: Toxicity in BALB/c mouse assessed as serum cholesterol level at 50 mg/kg, po after 24 hrs; format: organism-based; design: dose 50 mg/kg, route oral; details: in vivo
[30] = system: Mus musculus; assay: Toxicity in BALB/c mouse assessed as serum BUN level at 50 mg/kg, po after 24 hrs; format: organism-based; design: dose 50 mg/kg, route oral; details: in vivo
[31] = system: Mus musculus; assay: Toxicity in BALB/c mouse assessed as serum ALT level at 50 mg/kg, po after 24 hrs; format: organism-based; design: dose 50 mg/kg, route oral; details: in vivo
[32] = system: Mus musculus; assay: Toxicity in BALB/c mouse assessed as serum AML level at 50 mg/kg, po after 24 hrs; format: organism-based; design: dose 50 mg/kg, route oral; details: in vivo
[33] = system: Mus musculus; assay: Toxicity in BALB/c mouse assessed as serum alkaline phosphatase level at 50 mg/kg, po after 24 hrs; format: organism-based; design: dose 50 mg/kg, route oral; details: in vivo
[34] = system: Mus musculus; assay: Toxicity in BALB/c mouse assessed as serum GGT level at 50 mg/kg, po after 24 hrs; format: organism-based; design: dose 50 mg/kg, route oral; details: in vivo
[35] = system: Mus musculus; assay: Toxicity in BALB/c mouse assessed as serum ALB level at 100 mg/kg, po after 24 hrs; format: organism-based; design: dose 100 mg/kg, route oral; details: in vivo
[36] = system: Mus musculus; assay: Toxicity in BALB/c mouse assessed as serum globulin level at 100 mg/kg, po after 24 hrs; format: organism-based; design: dose 100 mg/kg, route oral; details: in vivo
[37] = system: Mus musculus; assay: Toxicity in BALB/c mouse assessed as serum total proteins level at 100 mg/kg, po after 24 hrs; format: organism-based; design: dose 100 mg/kg, route oral; details: in vivo
[38] = system: Mus musculus; assay: Toxicity in BALB/c mouse assessed as serum cholesterol level at 100 mg/kg, po after 24 hrs; format: organism-based; design: dose 100 mg/kg, route oral; details: in vivo
[39] = system: Mus musculus; assay: Toxicity in BALB/c mouse assessed as serum uric acid level at 100 mg/kg, po after 24 hrs; format: organism-based; design: dose 100 mg/kg, route oral; details: in vivo
[40] = system: Mus musculus; assay: Toxicity in BALB/c mouse assessed as serum BUN level at 100 mg/kg, po after 24 hrs; format: organism-based; design: dose 100 mg/kg, route oral; details: in vivo
[41] = system: Mus musculus; assay: Toxicity in BALB/c mouse assessed as serum Ca2+ level at 100 mg/kg, po after 24 hrs; format: organism-based; design: dose 100 mg/kg, route oral; details: in vivo
[42] = system: Mus musculus; assay: Toxicity in BALB/c mouse assessed as serum ALT level at 100 mg/kg, po after 24 hrs; format: organism-based; design: dose 100 mg/kg, route oral; details: in vivo
[43] = system: Mus musculus; assay: Toxicity in BALB/c mouse assessed as serum AML level at 100 mg/kg, po after 24 hrs; format: organism-based; design: dose 100 mg/kg, route oral; details: in vivo
[44] = system: Mus musculus; assay: Toxicity in BALB/c mouse assessed as serum GGT level at 100 mg/kg, po after 24 hrs; format: organism-based; design: dose 100 mg/kg, route oral; details: in vivo
[45] = system: Mus musculus; assay: Toxicity in BALB/c mouse assessed as mortality at 25 to 100 mg/kg, po; format: organism-based; design: dose 25-100 mg/kg, route oral; details: in vivo
[46] = system: Mus musculus; assay: Toxicity in BALB/c mouse assessed as serum alkaline phosphatase level at 100 mg/kg, po after 24 hrs; format: organism-based; design: dose 100 mg/kg, route oral; details: in vivo
[47] = system: Trypanosoma cruzi; assay: Induction of kinetoplast enlargement in trypomastigotes of Trypanosoma cruzi Y at 3.5 uM after 24 hrs by […] electron microscopic analysis; format: functional, organism-based
[48] = system: Trypanosoma cruzi; assay: Induction of endoplasmic reticulum degeneration in trypomastigotes of Trypanosoma cruzi Y at 3.5 uM after 24 hrs by […] electron microscopic analysis; format: functional, organism-based
[49] = system: Trypanosoma cruzi; assay: Induction of golgi apparatus degeneration in trypomastigotes of Trypanosoma cruzi Y at 3.5 uM after 24 hrs by […] electron microscopic analysis; format: functional, organism-based
[50] = system: Trypanosoma cruzi; assay: Induction of mitochondria degeneration in trypomastigotes of Trypanosoma cruzi Y at 3.5 uM after 24 hrs by […] electron microscopic analysis; format: functional, organism-based
[51] = system: Trypanosoma cruzi; assay: Induction of ultrastructural changes in trypomastigotes of Trypanosoma cruzi Y assessed as plasma membrane protrusions at 10 uM after 24 hrs by scanning electron microscopic analysis; format: functional
[52] = Therapeutic index, ratio of LC50 for BALB/c mouse splenocytes to IC50 for Trypanosoma cruzi Y; details: read-out: Ratio LC50/IC50
[53] = system: Mus musculus; assay: Toxicity in BALB/c mouse assessed as serum globulin level at 25 mg/kg, po after 24 hrs; format: organism-based; design: dose 25 mg/kg, route oral; details: in vivo

Chain of Cruzipain (Trypanosoma cruzi) (P25779 123-467 limits assumed): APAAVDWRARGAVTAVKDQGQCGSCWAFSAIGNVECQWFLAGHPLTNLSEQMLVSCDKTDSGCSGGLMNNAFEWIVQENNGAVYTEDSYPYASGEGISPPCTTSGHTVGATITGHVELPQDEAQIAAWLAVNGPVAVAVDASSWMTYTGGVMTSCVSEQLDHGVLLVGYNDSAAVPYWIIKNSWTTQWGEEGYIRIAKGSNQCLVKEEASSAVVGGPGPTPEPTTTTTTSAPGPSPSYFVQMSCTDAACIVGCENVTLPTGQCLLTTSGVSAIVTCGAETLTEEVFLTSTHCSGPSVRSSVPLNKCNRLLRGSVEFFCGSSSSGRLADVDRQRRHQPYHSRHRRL
Chain of Cruzipain (P25779 whole entry): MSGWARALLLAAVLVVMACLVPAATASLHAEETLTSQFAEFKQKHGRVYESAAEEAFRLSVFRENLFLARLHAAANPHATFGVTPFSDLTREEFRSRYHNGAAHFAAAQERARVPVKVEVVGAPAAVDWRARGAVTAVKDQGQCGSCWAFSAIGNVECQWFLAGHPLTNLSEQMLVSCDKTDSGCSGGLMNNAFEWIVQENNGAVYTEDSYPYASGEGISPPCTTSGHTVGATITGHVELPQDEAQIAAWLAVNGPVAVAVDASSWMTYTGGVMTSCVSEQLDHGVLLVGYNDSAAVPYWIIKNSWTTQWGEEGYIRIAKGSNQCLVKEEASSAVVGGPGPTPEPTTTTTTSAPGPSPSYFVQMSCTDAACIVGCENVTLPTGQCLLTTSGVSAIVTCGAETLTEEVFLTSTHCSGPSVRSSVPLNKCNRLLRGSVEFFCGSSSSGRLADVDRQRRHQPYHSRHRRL

O=C(N/N=C/c1ccc2c(c1)OCO2)c1nc(-c2ccc(F)cc2)no1
Activity [1]: Active | Activity [2]: Active | Activity [3]: Active | Activity [4]: Active | Activity [5]: 80% | Activity [6]: Active | CC50 at 24 h [7]: > 100 µg/mL | Activity [8]: Active | IC50 [9]: 12.2 µM | IC50 [10]: 9.5 µM | inhibition [11]: 34% | Activity [12]: inactive

O=C(N/N=C/c1ccc2c(c1)OCO2)c1nc(-c2ccc(O)cc2)no1
CC50 at 24 h [7]: > 100 µg/mL | inhibition [11]: 17%

COc1cc(/C=N/NC(=O)c2nc(-c3ccc(Cl)cc3)no2)ccc1O
CC50 at 24 h [7]: > 100 µg/mL | IC50 [13]: 0.04 µM | inhibition [11]: 92%

O=C(N/N=C/c1ccc2c(c1)OCO2)c1nc(-c2ccc(Cl)cc2)no1
Activity [14]: 4.75 g/dL | Activity [15]: 2.35 g/dL | Activity [16]: 1.65 mg/dL | Activity [17]: 9.45 mg/dL | Activity [18]: 53 mg/dL | Activity [19]: 1183 U/L | Activity [20]: 17.8 mg/dL | Activity [21]: 1 U/L | Activity [22]: 32.5 U/L | Activity [23]: 148 U/L | Activity [24]: 2.67 g/dL | Activity [25]: 2.16 g/dL | Activity [26]: 1.46 mg/dL | Activity [27]: 4.86 g/dL | Activity [28]: 9.45 mg/dL | Activity [29]: 59.5 mg/dL | Activity [30]: 18.07 mg/dL | Activity [31]: 36 U/L | Activity [32]: 1268 U/L | Activity [33]: 142.7 U/L | Activity [34]: 0.67 U/L | Activity [35]: 2.36 g/dL | Activity [36]: 2.73 g/dL | Activity [37]: 5.1 g/dL | Activity [38]: 54.5 mg/dL | Activity [39]: 2 mg/dL | Activity [40]: 13.7 mg/dL | Activity [41]: 9.56 mg/dL | Activity [42]: 29.67 U/L | Activity [43]: 1170 U/L | Activity [44]: 1 U/L | Activity [45]: Non-toxic | Activity [46]: 155.5 U/L | Activity [47]: Active | Activity [48]: Active | Activity [49]: Active | Activity [50]: Active | Activity [51]: 80% | Activity [6]: Active | CC50 at 24 h [7]: > 100 µg/mL | Activity [8]: Active | IC50 [9]: 7.5 µM | IC50 [10]: 3.5 µM | inhibition [11]: 42% | selectivity ratio [52]: 50 | Activity [12]: Active | Activity [53]: 2.4 g/dL

COc1cc(/C=N/NC(=O)c2nc(-c3ccc(O)cc3)no2)ccc1O
CC50 at 24 h [7]: > 100 µg/mL | inhibition [11]: 25%
